We go through 23 compounds from patent publication US8507533B2, “Glucagon receptor modulators” (Pfizer Inc., priority 2011, dated 2013).

Experiment [1] deals with T1, human glucagon receptor (Homo sapiens (Human), UniProt P47871). In words: Glucagon cAMP Assay (Cisbio cAMP detection). Type of experiment: cell-based. The conditions noted are these: CHOK1 cells stably transfected with the human glucagon receptor; block of glucagon induced cAMP production; Kb by modified Cheng-Prusoff equation. The protocol: The Cisbio cAMP detection assay is used to determine the ability of punitive glucagon antagonist to block glucagon induced cAMP production. Potential glucagon antagonists are re-suspended and diluted in 100% DMSO. Prior to use in the Glucagon cAMP assay 100×DMSO compound stocks are diluted 20× with DMEM-F12 media (Invitrogen) containing either 0.1% or 4% BSA. […] 2 μls of 5% DMSO or known glucagon antagonist are added to each plate to define the assay window. CHOK1 cells stably transfected with the human glucagon receptor are removed from culture flasks with cell dissociation buffer. Cell pellets are re-suspended, at a concentration of 8.3e^5 cells/ml in DMEM-F12 with or without 4% BSA and 200 uM IBMX. 6 μls of cell suspensions are added to the assay plates. Plates are incubated for 20 min at room temperature prior to the addition of a 100 μM challenge dose of glucagon. On a separate plate glucagon dose response curves are run to determine the EC50 of glucagon. After a 30 min room temperature incubation the reaction is terminated by the addition of lysis buffer containing the cAMP detection reagents. Plates are incubated for an additional 60 min at room temperature prior to being read on the Perkin Elmer fluorescent plate reader. Raw is converted to nM of cAMP produced based on a cAMP standard curve. Converted data is then analyzed using the Pfizer data analysis program. IC50 values are determined from the generated sigmoidal dose response curves. Kb values are calculated using a modified Cheng-Prusoff equation. N is the number of times the compound was assayed.
(In general: Changes in cAMP serve as a functional read-out for many G protein-coupled receptors.)

Experiment [2] concerns the target T1, human glucagon receptor. In words: Human Glucagon SPA Assay (binding of [125I]Glucagon-Cex). The conditions noted are these: membrane from chem-1 cells stably transfected with the human glucagon receptor, Ki by Cheng-Prusoff equation. The protocol:
The Glucagon SPA assay is used to determine the ability of test compounds to block the binding of glucagon-cex to the glucagon receptor. Test compounds are re-suspended and serially diluted in 100% DMSO. 1 μl of test compound at the desired concentrations is spotted into the appropriate wells of 96 well low binding white clear bottom plate (Corning). 1 μl of DMSO is spotted into total binding wells. 1 μl of a known glucagon antagonist at a concentration of 20 μM is added to non specific binding wells. […] All assay ingredients with the exception of test compounds are re-suspended in the following buffer; 50 mM Hepes pH 7.4; 5 mM MgCl2; 1 mM CaCl; 5% glycerol and 0.2% BSA. Following a 6-10 hr incubation at room temperature the amount of hot ligand bound to the cell membranes is determined by reading the plates on a Wallac Trilux radioactive emission detector. Data is analyzed using Pfizer's Data analysis program. IC50 values are then determined from the generated sigmoidal dose response curves. Ki values are calculated using Cheng-Prusoff equation. N is the number of times the compound was assayed.

T1 sequence (P47871 26-477): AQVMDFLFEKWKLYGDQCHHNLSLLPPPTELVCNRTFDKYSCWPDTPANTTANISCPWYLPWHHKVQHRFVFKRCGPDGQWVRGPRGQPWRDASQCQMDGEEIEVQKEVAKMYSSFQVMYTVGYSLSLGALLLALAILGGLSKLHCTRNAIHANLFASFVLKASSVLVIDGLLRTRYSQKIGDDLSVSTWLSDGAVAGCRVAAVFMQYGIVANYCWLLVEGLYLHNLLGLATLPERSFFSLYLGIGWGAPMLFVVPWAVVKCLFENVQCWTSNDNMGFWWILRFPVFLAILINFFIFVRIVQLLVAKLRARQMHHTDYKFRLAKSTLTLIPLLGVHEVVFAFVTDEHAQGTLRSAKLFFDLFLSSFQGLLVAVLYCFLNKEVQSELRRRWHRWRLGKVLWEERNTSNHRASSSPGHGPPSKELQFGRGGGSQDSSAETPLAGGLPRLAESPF

As to `CCCC(Oc1ccc(-n2cc(Cl)c(C)n2)cc1)c1ccc(C(=O)NCCC(=O)O)cc1` (racemic) [Example 22, (+/−)-3-(4-(1-(4-(4-chloro-3-methyl-1H-pyrazol-1-yl)phenoxy)butyl)benzamido)propanoic acid], the Kb on human glucagon receptor [1] came to 835 nM. On human glucagon receptor [2], affinity was put at a Ki of 665 nM.

Compound `CCCCc1ccn(-c2ccc(OC(CCC)c3ccc(C(=O)NCCC(=O)O)cc3)cc2)n1` (racemic) [Example 31, (+/−)-3-(4-(1-(4-(3-butyl-1H-pyrazol-1-yl)phenoxy)butyl)benzamido)propanoic acid] showed a Kb at human glucagon receptor [1] of 1450 nM. The affinity at human glucagon receptor [2], expressed as Ki, was 1330 nM.

The compound `CCCC(Oc1ccc(-c2cc(C(F)(F)F)nn2C)cc1)c1ccc(C(=O)NCCC(=O)O)cc1` (racemic) [Example 53, (+/−)-3-(4-(1-(4-(1-methyl-3-(trifluoromethyl)-1H-pyrazol-5-yl)phenoxy)butyl)benzamido)propanoic acid] displayed a Kb at human glucagon receptor [1] of 2610 nM. In addition, at human glucagon receptor [2], the affinity, expressed as Ki, was 556 nM.

Regarding `O=C(O)CCNC(=O)c1ccc(C(Nc2ccc(-n3cc(C(F)(F)F)cn3)nc2)C2CCCCC2)cc1` (racemic) [Example 101, (+/−)-3-(4-(cyclohexyl(6-(4-(trifluoromethyl)-1H-pyrazol-1-yl)pyridine-3-ylamino)methyl)benzamido)propanoic acid], at human glucagon receptor [1], the Kb was determined as 79.3 nM. This compound returned a Ki at human glucagon receptor [2] of 17 nM.

Compound `Cc1cc(NC(CC(C)C)c2ccc(C(=O)NCCC(=O)O)cn2)cnc1-n1cc(C(F)(F)F)cn1` (racemic) [Example 102, (+/−)-3-(6-(3-methyl-1-(5-methyl-6-(4-(trifluoromethyl)-1H-pyrazol-1-yl)pyridin-3-ylamino)butyl)nicotinamido)propanoic acid] yielded a Kb at human glucagon receptor [1] of 3540 nM.

In the case of `Cc1cc(NC(CC(C)C)c2ccc(C(=O)NCCC(=O)O)cc2)cnc1-n1cc(C(F)(F)F)cn1` (racemic) [Example 105, (+/−)-3-(4-(3-methyl-1-(5-methyl-6-(4-(trifluoromethyl)-1H-pyrazol-1-yl)pyridin-3-ylamino)butyl)benzamido)propanoic acid], the Kb at human glucagon receptor [1] turned out to be 455 nM. The same compound displayed a Ki on human glucagon receptor [2] of 69.8 nM.

In turn, `O=C(O)CCNC(=O)c1ccc(C(Nc2ccc(-n3cc(C(F)(F)F)cn3)nc2)C2CCC2)cc1` (racemic) [Example 106, (+/−)-3-(4-(cyclobutyl(6-(4-(trifluoromethyl)-1H-pyrazol-1-yl)pyridin-3-ylamino)methyl)benzamido)propanoic acid] yielded a Kb on human glucagon receptor [1] of 187 nM. The compound further registered a Ki on human glucagon receptor [2] of 91.9 nM.

As for `O=C(O)CCNC(=O)c1ccc(C(CC2CC2)Nc2ccc(-n3cc(C(F)(F)F)cn3)nc2)cc1` (racemic) [Example 107, (+/−)-3-(4-(2-cyclopropyl-1-(6-(4-(trifluoromethyl)-1H-pyrazol-1-yl)pyridin-3-ylamino)ethyl)benzamido)propanoic acid], the Kb at human glucagon receptor [1] was 252 nM. On human glucagon receptor [2], this compound came in with a Ki of 71.6 nM.

On human glucagon receptor [1], `O=C(O)CCNC(=O)c1ccc(C(Oc2ccc(-n3cc4ccccc4n3)cc2)C2CCCC2)cc1` (racemic) [Example 119, (+/−)-3-(4-((4-(2H-indazol-2-yl)phenoxy)(cyclopentyl)methyl)benzamido)propanoic acid] showed a Kb of 67 nM. Further, the Ki on human glucagon receptor [2] was 103 nM.

On to `O=C(O)CCNC(=O)c1ccc(C(Nc2ccc(-n3cnc(C(F)(F)F)c3)nc2)C(F)(F)F)cc1` (racemic) [Example 121, (+/−)-3-(4-(2,2,2-trifluoro-1-(6-(4-(trifluoromethyl)-1H-imidazol-1-yl)pyridin-3-ylamino)ethyl)benzamido)propanoic acid], for which, on human glucagon receptor [1], the Kb was 764 nM. Further, on human glucagon receptor [2], the inhibition constant (Ki) worked out at 298 nM.

In the case of `CC(C)(C)c1cn(-c2ccc(NC(c3ccc(C(=O)NCCC(=O)O)cc3)C3CCCC3)cn2)cn1` (racemic) [Example 122, (+/−)-3-(4-((6-(4-tert-butyl-1H-imidazol-1-yl)pyridin-3-ylamino)(cyclopentyl)methyl)benzamido)propanoic acid], the Kb on human glucagon receptor [1] turned out to be 43 nM. For the same compound, the inhibition constant Ki at human glucagon receptor [2] is 45.7 nM.

The compound `CCCC(Oc1cnc(-n2cc(C(F)(F)F)cn2)c(C)c1)c1ccc(C(=O)NCCC(=O)O)cc1` (racemic) [Example 150, (+/−)-3-(4-(1-(5-methyl-6-(4-(trifluoromethyl)-1H-pyrazol-1-yl)pyridin-3-yloxy)butyl)benzamido)propanoic acid] returned a Kb at human glucagon receptor [1] of 1640 nM. This compound yielded a Ki on human glucagon receptor [2] of 446 nM.

For the compound `Cc1cc(OC(c2ccc(C(=O)NCCC(=O)O)cc2)C2CCC2)cc(C)c1-n1cc(C(F)(F)F)cn1` (racemic) [Example 151, (+/−)-3-(4-(cyclobutyl(3,5-dimethyl-4-(4-(trifluoromethyl)-1H-pyrazol-1-yl)phenoxy)methyl)benzamido)propanoic acid], at human glucagon receptor [1], the Kb is 227 nM. The affinity at human glucagon receptor [2], expressed as Ki, was 20.2 nM.

Turning to `Cc1cc(OC(c2ccc(C(=O)NCCC(=O)O)cc2)C2CC(C)(C)C2)cc(C)c1-n1cc(C(F)(F)F)cn1` (racemic) [Example 152, (+/−)-3-(4-((3,5-dimethyl-4-(4-(trifluoromethyl)-1H-pyrazol-1-yl)phenoxy)(3,3-dimethylcyclobutyl)methyl)benzamido)propanoic acid], on human glucagon receptor [1], the Kb was 301 nM. At human glucagon receptor [2], this compound displayed a Ki of 35.2 nM.

For the compound `CCCC(Oc1cc(C)c(-n2cc(C(F)(F)F)cn2)c(OC)c1)c1ccc(C(=O)NCCC(=O)O)cc1` (racemic) [Example 153, (+/−)-3-(4-(1-(3-methoxy-5-methyl-4-(4-(trifluoromethyl)-1H-pyrazol-1-yl)phenoxy)butyl)benzamido)propanoic acid], at human glucagon receptor [1], the Kb stood at 225 nM. At human glucagon receptor [2], this compound had an inhibitory constant (Ki) of 32.3 nM.

Turning to `O=C(O)CCNC(=O)c1ccc(C(Nc2ccc(-n3cnc(C(F)(F)F)c3)nc2)C2CC(F)(F)C2)cc1` (racemic) [Example 154, (+/−)-3-(4-((3,3-difluorocyclobutyl)(6-(4-(trifluoromethyl)-1H-imidazol-1-yl)pyridin-3-ylamino)methyl)benzamido)propanoic acid], the Kb on human glucagon receptor [1] came to 629 nM. Further, the affinity on human glucagon receptor [2], expressed as Ki, was 235 nM.

Compound `O=C(O)CCNC(=O)c1ccc(C(Nc2ccc(-n3cc(C(F)(F)F)cn3)nc2)C2CCCC2)cc1` (single isomer, unassigned) [Example 95, 3-(4-(cyclopentyl(6-(4-(trifluoromethyl)-1H-pyrazol-1-yl)pyridine-3-ylamino)methyl)benzamido)propanoic acid] registered a Kb at human glucagon receptor [1] of 32.8 nM.

For `O=C(O)CCNC(=O)c1ccc(C(Nc2ccc(-n3cc(C(F)(F)F)cn3)nc2)C2CCCC2)cc1` (single isomer, unassigned) [Example 96, 3-(4-(cyclopentyl(6-(4-(trifluoromethyl)-1H-pyrazol-1-yl)pyridine-3-ylamino)methyl)benzamido)propanoic acid], the Kb at human glucagon receptor [1] was 871 nM.

Turning to `Cc1cc(-n2cc(C(F)(F)F)cn2)ccc1C(Nc1ccc(C(=O)NCCC(=O)O)cn1)C1CCCCC1` (single isomer, unassigned) [Example 117, 3-(6-(cyclohexyl(2-methyl-4-(4-(trifluoromethyl)-1H-pyrazol-1-yl)phenyl)methylamino)nicotinamido)propanoic acid], the Kb on human glucagon receptor [1] is 227 nM.

Turning to `Cc1cc(-n2cc(C(F)(F)F)cn2)ccc1C(Nc1ccc(C(=O)NCCC(=O)O)cn1)C1CCCCC1` (single isomer, unassigned) [Example 118, 3-(6-(cyclohexyl(2-methyl-4-(4-(trifluoromethyl)-1H-pyrazol-1-yl)phenyl)methylamino)nicotinamido)propanoic acid], the Kb on human glucagon receptor [1] is 1020 nM.

As to `CCCC(Nc1ccc(-n2cnc(C(F)(F)F)c2)nc1)c1ccc(C(=O)NCCC(=O)O)cc1` (single isomer, unassigned; isomer 1) [Example 10, 3-(4-(1-(6-(4-(trifluoromethyl)-1H-imidazol-1-yl)yridine-3-ylamino)butyl)benzamido)propanoic acid, Isomer 1], the Kb at human glucagon receptor [1] was determined as 15500 nM.

`CCCC(Nc1ccc(-n2cnc(C(F)(F)F)c2)nc1)c1ccc(C(=O)NCCC(=O)O)cc1` (single isomer, unassigned; isomer 2) [Example 11, 3-(4-(1-(6-(4-(trifluoromethyl)-1H-imidazol-1-yl)yridine-3-ylamino)butyl)benzamido)propanoic acid, Isomer 2] registered a Kb on human glucagon receptor [1] of 612 nM.

Turning to `CCCC(Oc1ccc(-n2cc(-c3ccccc3)cn2)nc1)c1ccc(C(=O)NCCC(=O)O)cc1` (centres unmarked) [Example 133], the Kb at human glucagon receptor [1] is 75 nM.

One may read the Ki as a dissociation constant, usually derived from enzyme kinetics or from competition with a known ligand.
